Experimental data: US20060122276A1, “Agent for inhibiting membrane virus reproduction, method for the production thereof, pharmaceutical composition and method for inhibiting viral infections” (priority 2003, published 2006)
Where two headings read alike, the source gives them in different places.

Tests used:
[1] = for Solubility in o-Dichlorobenzene: solvent o-dichlorobenzene
[2] = tested on: herpes simplex virus (HSV-1); assay: Antiviral activity with respect to HSV-1 in VERO cells; type: cell-based, type 1, strain L2; details: HSV-1, 10 TCD50/ml, VERO; for Degree of protection from CE virus, % A: substance contact time with cells 24 hrs; for Degree of protection from CE virus, % B: substance contact time with cells 48 hrs
Excerpt: Herpes simplex virus, type 1, strain L2, replicated in VERO cells was used in the investigation.
[…] acyclovir was used as positive control

HIV-1 = details: for CPE/syncytia, % / Viability of cells, %: HIV-1; for CPE/syncytia, %: Table 9; for Viability of cells, %: Table 9 (virus control 42)
Experimental: Cells Reinoculated humans lymphoblastoid cells MT-4 were used. […] The viability of the cells was determined from the color of a 0.4% solution of trypan blue.
Retrovir (azidothymidin) produced by GlaxoWellcome (Great Britain) was used as positive control.
The Antiviral activity of the preparations was investigated on a model of lymphoblastoid cells in a plastic 24-cell plate. The virus dose was 100 TCD50 (50% tissue cytopathic dose). […] The activity of the preparation was determined from the inhibition of the virus-induced cytopathic action (CPA) in the cell cultures and the virus antigen level in the culture fluid by immunoenzymatic analysis.

[3] = tested on: lymphoblastoid human cells MT-4; assay: Cytotoxicity on non-infected human lymphoblastoid cells; type: cell-based; details: cytotoxicity
[4] = 300 μg/ml, human lymphoblastoid cells

Molecule | Solubility in o-Dichlorobenzene [1] | Degree of protection from CE virus, % A ([2]; 10.0 μg/ml) [%] | Degree of protection from CE virus, % B ([2]; 10.0 μg/ml) [%] | Antiviral activity with respect to HIV-1 compared with fullerene-polyamino-caproic acid (HIV-1) | CPE/syncytia, % (HIV-1; 0.1 μg/ml) [%] | Viability of cells, % (HIV-1; 0.1 μg/ml) [%] | CPE/syncytia, % (HIV-1; 0.5 μg/ml) [%] | Viability of cells, % (HIV-1; 0.5 μg/ml) [%] | CPE/syncytia, % (HIV-1; 1.0 μg/ml) [%] | Viability of cells, % (HIV-1; 1.0 μg/ml) [%] | CPE/syncytia, % (HIV-1; 10.0 μg/ml) [%] | Viability of cells, % (HIV-1; 10.0 μg/ml) [%] | other results
c12c3c4c5c1c1c6c7c2c2c8c3c3c9c4c4c%10c5c5c1c1c6c6c%11c7c2c2c7c8c3c3c8c9c4c4c9c%10c5c5c1c1c6c6c%11c2c2c7c3c3c8c4c4c9c5c1c1c6c2c3c41 [Fullerene] | Yes |  |  |  |  |  |  |  |  |  |  |  | Solubility in Glacial acetic acid ([1]; solvent glacial acetic acid): No; Solubility in Toluene ([1]; solvent toluene): Yes; Solubility in Water ([1]; solvent water): No
sodium salt of fullerene-polyamino-butyric acid [ABA] | No | 33.3 | 33.3 | lower antiviral activity | 25 | 52 | 15 | 65 | 10 | 71 | 0 | 72 | Degree of protection from CE virus, % A ([2]; 0.1 μg/ml): 0.0%; Degree of protection from CE virus, % B ([2]; 0.1 μg/ml): 33.3%; Degree of protection from CE virus, % A ([2]; 25.0 μg/ml): 100%; Degree of protection from CE virus, % B ([2]; 25.0 μg/ml): 100%; Degree of protection from CE virus, % A ([2]; 50.0 μg/ml): 100%; Degree of protection from CE virus, % B ([2]; 50.0 μg/ml): 100%
sodium salt of fullerene-polyamino-octanoic acid [AOA] |  | 100 | 100 | lower antiviral activity | 25 | 50 | 25 | 53 | 25 | 57 | 0 | 60 | Degree of protection from CE virus, % A ([2]; 1.0 μg/ml): 33.3%; Degree of protection from CE virus, % B ([2]; 1.0 μg/ml): 100%; Viability of cells, % ([3]; 100 μg/ml, human lymphoblastoid cells (cell control 95)): 79%; Number of cells × 10^3/ml ([3]; 100 μg/ml, human lymphoblastoid cells (cell control 250)): 150 × 10^3/ml; Number of cells × 10^3/ml [3, 4]: 150 × 10^3/ml; Viability of cells, % [3, 4]: 82%
